Source: publication PMC7582507, “SARs for the Antiparasitic Plant Metabolite Pulchrol. Part 2: B- and C-Ring Substituents” (Molecules, 2020)
Like-named read-outs stand apart in the source and are kept apart here.

Assays:
[1] = system: Trypanosoma cruzi epimastigotes; test: Trypanocidal activity against T. cruzi epimastigotes (XTT, 72 h); format: cell-based; conditions: for IC50: 72 h; for selectivity ratio at 72 h: mouse (RAW cells), Trypanosoma cruzi (parasite), RAW 264.7 macrophage cells versus T. cruzi epimastigotes, read-out: T. cruzi SI (selectivity index, cytotoxicity/anti-protozoal activity); for selectivity ratio at 72 h / T. cruzi SI (selectivity index, cytotoxicity/anti-protozoal activity): IC50 RAW cells / IC50 T. cruzi
Experimental: Cultures of Trypanosoma cruzi (epimastigotes, donated by the Parasitology Department of INLASA, Tc-INLASA, city, country), were maintained in medium LIT (pH 7.2), supplemented with 10% FBS and incubated at 26 °C. Medium changes were made every 72 h to maintain a viable parasitic population. Trypanocidal activity was determined according to Muelas-Serrano with some modifications. Samples were dissolved in DMSO (maximum final concentration 1%) at 10 mg/mL. Epimastigotes in logarithmic phase of growth, at a concentration of 3 × 10^6 parasites/mL, were distributed (100 μL/well) in 96-well flat bottom microtiter plates. Samples at different concentrations (3.1–100 μg/mL) were added (100 μL). Benznidazole (3.1–100 μg/mL) was used as the control drug. Assays were performed in triplicates. The microwell plates were incubated for 72 h at 26 °C. After incubation, a solution of XTT (1 mg/mL) in PBS (pH 7.0 at 37 °C) with PMS (0.06 mg/mL) was added (50 μL/well) and incubated for 4 h at 26 °C. The optical density of each well was measured and the IC50 values were calculated. A negative control experiments with only 1% DMSO was carried out, showing that the solvent by itself has no antiparasitic activity.

[2] = system: Leishmania braziliensis promastigotes; test: Leishmanicidal activity against L. braziliensis promastigotes (XTT, 72 h); conditions: for IC50: 72 h; for selectivity ratio at 72 h: mouse (RAW cells), Leishmania braziliensis (parasite), L. brasiliensis SI (selectivity index, cytotoxicity/anti-protozoal activity); for selectivity ratio at 72 h / L. brasiliensis SI (selectivity index, cytotoxicity/anti-protozoal activity): IC50 RAW cells / IC50 L. braziliensis
[3] = system: Leishmania amazonensis promastigotes; test: Leishmanicidal activity against L. amazonensis promastigotes (XTT, 72 h); conditions: for IC50: 72 h; for selectivity ratio at 72 h: mouse (RAW cells), Leishmania amazonensis (parasite), L. amazoniensis SI (selectivity index, cytotoxicity/anti-protozoal activity); for selectivity ratio at 72 h / L. amazoniensis SI (selectivity index, cytotoxicity/anti-protozoal activity): IC50 RAW cells / IC50 L. amazonensis
[4] = Cytotoxicity on RAW cells (resazurin, 72 h); conditions: mouse
[5] = system: Raw 264.7 murine macrophage cell line; test: Cytotoxicity on RAW cells (resazurin, 72 h); conditions: read-out: Cytotoxicity IC50; RAW cells, 72 h, average ± SD of at least three experiments
CB2 receptor = conditions: cited from earlier work
[6] = system: Leishmania amazonensis promastigotes; conditions: stated as previously investigated and reported, read-out: IC50 against L. amazonesis promastigotes; cited from earlier work
[7] = epimastigotes, average ± SD of at least three experiments, read-out: T. cruzi IC50
[8] = read-out: L. brasiliensis IC50, promastigotes, 72 h, average ± SD of at least three experiments
[9] = Leishmania amazonensis, read-out: L. amazoniensis IC50, promastigotes, 72 h, average ± SD of at least three experiments
[10] = RAW 264.7 macrophage cells, Cytotoxicity IC50, RAW cells, 72 h, average ± SD of at least three experiments
[11] = Trypanosoma cruzi, epimastigotes, average ± SD of at least three experiments, read-out: T. cruzi IC50
[12] = read-out: L. amazoniensis IC50, promastigotes, average ± SD of at least three experiments
[13] = read-out: L. brasiliensis IC50, promastigotes, average ± SD of at least three experiments

| Structure (SMILES) | selectivity ratio at 72 h [1] | IC50 [2, 8] | selectivity ratio at 72 h [2] | IC50 [3, 9] | selectivity ratio at 72 h [3] | IC50 at 72 h [4, 10] | IC50 [1, 11] | IC50 at 72 h [4] | other results |
| --- | --- | --- | --- | --- | --- | --- | --- | --- | --- |
| COc1ccc2c(c1)-c1cc(CO)ccc1CO2 [8a, (2-Methoxy-6H-benzo[c]chromen-9-yl)methanol] | 1.3 | 248 ± 54.1 µM | 0.3 | 132 ± 29.3 µM | 0.6 | 82.6 ± 9.5 µM |  |  | IC50 ([1]; Trypanosoma cruzi, read-out: T. cruzi IC50, epimastigotes, 72 h, average ± SD of at least three experiments): 66.6 µM; IC50 [1, 7]: 66 ± 18.2 µM |
| COc1ccc2c(c1)-c1cc(CO)ccc1C(C)O2 (stereo not shown) [8b, (2-Methoxy-6-methyl-6H-benzo[c]chromen-9-yl)methanol] | 1 | 156 ± 23.4 µM | 0.2 |  |  | 37.1 ± 3.9 µM | 35.9 ± 11.7 µM |  | L. amazoniensis SI (selectivity index, cytotoxicity/anti-protozoal activity) [3]: 0.2; IC50 [3, 12]: 156 ± 58.5 µM |
| COc1ccc2c(c1)-c1cc(CO)ccc1C(C)O2 (stereo not shown) [8c, (2-Methoxy-6-methyl-6H-benzo[c]chromen-9-yl)methanol] |  |  |  |  |  |  |  |  | T. cruzi SI (selectivity index, cytotoxicity/anti-protozoal activity) [1]: 0.8; IC50 [1, 7]: 67.1 ± 31.2 µM; L. brasiliensis SI (selectivity index, cytotoxicity/anti-protozoal activity) [2]: 0.4; IC50 [2, 13]: 129 ± 24.6 µM; L. amazoniensis SI (selectivity index, cytotoxicity/anti-protozoal activity) [3]: 0.7; IC50 [3, 12]: 71.8 ± 12.5 µM; IC50 [5]: 52.7 ± 9 µM |
| CCC1Oc2ccc(OC)cc2-c2cc(CO)ccc21 (stereo not shown) [8d, (6-Ethyl-2-methoxy-6H-benzo[c]chromen-9-yl)methanol] | 0.6 | 45.9 ± 20.3 µM | 0.7 | 71.4 ± 1.1 µM | 0.4 | 30 ± 3.7 µM | 51.8 ± 9.2 µM |  |  |
| CCC1Oc2ccc(OC)cc2-c2cc(CO)ccc21 (stereo not shown) [8e, (6-Ethyl-2-methoxy-6H-benzo[c]chromen-9-yl)methanol] |  |  |  |  |  |  |  |  | T. cruzi SI (selectivity index, cytotoxicity/anti-protozoal activity) [1]: 1.2; IC50 [1, 7]: 37 ± 0.7 µM; L. brasiliensis SI (selectivity index, cytotoxicity/anti-protozoal activity) [2]: 1.0; IC50 [2, 13]: 45.1 ± 19.2 µM; L. amazoniensis SI (selectivity index, cytotoxicity/anti-protozoal activity) [3]: 0.6; IC50 [3, 12]: 70.3 ± 3.7 µM; IC50 [5]: 44.4 ± 11.5 µM |
| CCC1(CC)Oc2ccc(OC)cc2-c2cc(CO)ccc21 [8f, (6,6-Diethyl-2-methoxy-6H-benzo[c]chromen-9-yl)methanol] | 4.2 | 46.9 ± 5 µM | 0.9 | 36.9 ± 3.4 µM | 1.2 | 43.6 ± 15.1 µM | 10.4 ± 0.3 µM |  |  |
| CCCCC1(CCCC)Oc2ccc(OC)cc2-c2cc(CO)ccc21 [8g, (6,6-Dibutyl-2-methoxy-6H-benzo[c]chromen-9-yl)methanol] | 1.5 | 29.3 ± 1.4 µM | 1.2 | 25.4 ± 1.1 µM | 1.4 |  | 22.8 ± 8.5 µM | 35.3 ± 17.5 µM |  |
| COc1ccc2c(c1)OC(C)(C)c1ccc(CO)cc1-2 [10a, (3-Methoxy-6,6-dimethyl-6H-benzo[c]chromen-9-yl)methanol] | 0.7 | 37.4 ± 1.1 µM | 1.6 | 66.6 ± 7.4 µM | 0.9 |  | 88.4 ± 12.2 µM | 59.2 ± 25.9 µM |  |
| COc1cccc2c1-c1cc(CO)ccc1C(C)(C)O2 [10b, (1-Methoxy-6,6-dimethyl-6H-benzo[c]chromen-9-yl)methanol] | 0.5 | 48.1 ± 18.5 µM | 1 | 180 ± 21.9 µM | 0.3 |  | 92.5 ± 14.8 µM | 48.1 ± 18.5 µM |  |
| Cc1ccc2c(c1)-c1cc(CO)ccc1C(C)(C)O2 [10c, (2,6,6-Trimethyl-6H-benzo[c]chromen-9-yl)methanol] | 1.3 | 39.3 ± 2.4 µM | 1 | 64.9 ± 12.6 µM | 0.6 | 39.3 ± 1.6 µM | 31.5 ± 7.9 µM |  |  |
| Cc1ccc2c(c1)OC(C)(C)c1ccc(CO)cc1-2 [10d, (3,6,6-Trimethyl-6H-benzo[c]chromen-9-yl)methanol] | 1.1 | 40.1 ± 8.3 µM | 0.9 | 51.9 ± 13.8 µM | 0.7 |  | 33 ± 3.9 µM | 35.4 ± 7.9 µM |  |
| CC1(C)Oc2ccccc2-c2cc(CO)ccc21 [10e, (6,6-Dimethyl-6H-benzo[c]chromen-9-yl)methanol] | 1.2 | 74.9 ± 16.6 µM | 0.8 | 91.6 ± 5.4 µM | 0.7 | 62.4 ± 6.2 µM | 50.8 ± 6.2 µM |  |  |
| CC(C)c1ccc2c(c1)-c1cc(CO)ccc1C(C)(C)O2 [10f, (2-Isopropyl-6,6-dimethyl-6H-benzo[c]chromen-9-yl)methanol] | 0.7 | 18.1 ± 0.7 µM | 0.5 | 15.6 ± 2.8 µM | 0.6 |  | 12.4 ± 3.5 µM | 8.9 ± 3.5 µM |  |
| CC(C)c1ccc2c(c1)OC(C)(C)c1ccc(CO)cc1-2 [10g, (3-Isopropyl-6,6-dimethyl-6H-benzo[c]chromen-9-yl)methanol] | 1.6 | 19.1 ± 1.1 µM | 1.1 | 21.2 ± 7.1 µM | 1 |  | 14.2 ± 4.2 µM | 22 ± 7.1 µM |  |
| CCCCCc1ccc2c(c1)-c1cc(CO)ccc1C(C)(C)O2 [10h, (6,6-Dimethyl-2-pentyl-6H-benzo[c]chromen-9-yl)methanol] | 2 | 16.4 ± 0.3 µM | 0.8 | 16.8 ± 1.9 µM | 0.8 |  | 6.4 ± 0.3 µM | 12.9 ± 3.2 µM |  |
| O=C(Cn1ccnc1[N+](=O)[O-])NCc1ccccc1 [Benznidazole, reference compound] |  |  |  |  |  |  | 19.2 ± 7.7 µM |  | T. cruzi SI (selectivity index, cytotoxicity/anti-protozoal activity) [1]: 3.9; IC50 [5]: 74.7 ± 9.1 µM |
| CCCCCc1cc(O)c2c(c1)OC(C)(C)c1ccc(C)cc1-2 [Cannabinol] |  |  |  |  |  |  |  |  | affinity for the CB2 receptor compared to THC (CB2 receptor): 10 times |
| CCCCCCCCCCCCCCCCOP(=O)([O-])OCC[N+](C)(C)C [Miltefosine, reference compound] |  | 13 ± 1.2 µM |  |  |  |  |  |  |  |
| COc1ccc2c(c1)-c1cc(CO)ccc1C(C)(C)O2 [compound 1, pulchrol] |  | 59.2 ± 11.8 µM |  |  |  |  | 18.5 ± 9.6 µM |  | T. cruzi SI (selectivity index, cytotoxicity/anti-protozoal activity) [1]: 1.7; L. brasiliensis SI (selectivity index, cytotoxicity/anti-protozoal activity) [2]: 0.5; IC50 [6]: 77.7 µM; L. amazoniensis SI (selectivity index, cytotoxicity/anti-protozoal activity) [3]: 0.4; IC50 [5]: 30.7 ± 1.1 µM |
